Laboratory results reported in patent publication US7507568B2, “Three dimensional coordinates of HPTPbeta” (The Proctor & Gamble Company, priority 2002, dated 2009).

Biological target: T1, PTPbeta catalytic domain [SEQ ID NO: 7] (Homo sapiens, UniProt P23467)
T1 construct: made in house; host or cells: Escherichia coli BL21-RIL
Test: Inhibition of HPTPbeta (relative inhibitor potency, stated in words)
Type: biochemical
Conditions: qualitative comparison; no numerical values or assay method printed

T1 sequence (P23467 with tags, fused parts or gaps): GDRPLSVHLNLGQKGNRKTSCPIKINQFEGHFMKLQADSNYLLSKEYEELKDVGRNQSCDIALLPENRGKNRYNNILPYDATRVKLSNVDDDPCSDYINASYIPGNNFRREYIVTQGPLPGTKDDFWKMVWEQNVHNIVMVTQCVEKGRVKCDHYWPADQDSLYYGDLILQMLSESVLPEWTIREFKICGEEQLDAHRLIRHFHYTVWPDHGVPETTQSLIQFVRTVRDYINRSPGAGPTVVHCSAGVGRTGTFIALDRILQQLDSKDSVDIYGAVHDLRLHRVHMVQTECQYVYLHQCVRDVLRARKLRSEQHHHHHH

inhibitor potency relative to Compound 1: more potent inhibitor than Compound 1
Compound: CNC(=O)[C@H](Cc1ccc(NS(=O)(=O)O)cc1)NC(=O)C(Cc1ccc(O)cc1)NC(=O)OC(C)(C)C (stereo in doubt) [Compound 2, {2-(4-Hydroxy-phenyl)-1-[1-methylcarbamoyl-2-(4-sulfoamino-phenyl)-ethylcarbamoyl]-ethyl}-carbamic acid tert-butyl ester]
